Values joined by “and” are separate entries in the source; they are usually repeats but may differ in a detail not shown here. Equal values may be shown once. “Also recorded” adds a separate entry of the source.
Key:
EL4 cells [1] = experiment: XTT cell viability/proliferation, EL4; type: cell-based, mouse; details: 10 µM to 1 pM, 24 hours
Protocol: (§1) Staurosporine, a well-characterized inducer of apoptosis, was included as a positive control for cell death. Cell viability/proliferation was measured by XTT. In this assay, XTT salts are cleaved by metabolically active (viable) cells, thereby producing a colorimetric change in the culture media that can be quantified by measuring absorbance at 405 nm and 620 nm on a spectrophotometer.

A2AR [2] = target: T1, A2AR (Homo sapiens, UniProt P29274); experiment: NECA-induced phospho-CREB in fresh PBMCs (B cell population); details: primarily B cell population
A2AR [3] = target: T1, A2AR; experiment: IL-2 and IFNγ secretion from activated primary human PBMCs (AlphaLISA); type: cell-based; design: Blood samples were derived from patients and processed using the following protocol; endogenous in cells; host or cells: whole blood B cells and T cells of treated subjects; details: CPI-444 1 μM; NECA or CGS21680 1 μM; anti-CD3/anti-CD28 48 hours
Protocol: Purified anti-CD3 and anti-CD28 monoclonal antibodies (1 ug/ml) were then added to activate T cells for 48 hours.
Purified anti-CD3 and anti-CD28 monoclonal antibodies (1 ug/ml) were then added to activate T cells for 48 hours. In this study, AlphaLISA assays (PerkinElmer) analyzed on an EnVision MultiLabel Reader were used to measure cytokine release according to the manufacturer's instructions.

A2AR [4] = target: T1, A2AR; experiment: NECA-induced pCREB in whole blood B cells and T cells of treated subjects (flow cytometry); type: in vivo; design: Blood samples were derived from patients and processed using the following protocol; endogenous in cells; host or cells: whole blood B cells and T cells of treated subjects
Protocol: Control samples were treated with phorbol myristate acetate (PMA).
[…] control samples were treated with phorbol myristate acetate (PMA).
On day 14, blood was collected prior to dosing (0 hr, trough) and for a time course post-dose (1.5, 3, 5.5, 8 hr) (FIGS. 26-28). The level of signaling was determined and the percent inhibition on Day 14 compared to Day 1 pre-treatment was calculated.

[5] = Phase 1/1b clinical trial in solid tumor patients (safety, efficacy, blood biomarkers); type: in vivo, human
Protocol: FIGS. 19A and 19B: T Cell activation in treated subjects. Whole blood was collected on Day 1 of Cycles 1, 2, 4 & 8 for flow analysis. The percentage of CD4 and CD8 T cells that stained PD-1+(FIG. 19A) or CD45RA− (memory/effector cells) (FIG. 19B) is shown. Each line represents a single subject across time.
Whole blood was collected on Day 1 of Cycles 1 and 2 and PBMCs were prepared. DNA was extracted from PBMCs and sequenced for TCRβ repertoire by Adaptive Biotechnologies. […] Morisita Index measures T cell repertoir similarity comparing pre- and post-dose PBMCs. A Morisita Index of 1 is equal to identity, indicating no longitudinal change. Morisita Index distribution in single agent and combination cohorts (FIG. 20B). Graph showing Morisita Index by cohort (FIG. 20C). […] Changes were driven predominantly by TCR clone expansion (clonality).
After a dose selection stage, pts are treated in 10 disease specific cohorts (5 single agent and 5 combination). Cohorts may be expanded based on response criteria: complete response, partial response or stable disease (SD). Biomarkers are evaluated including immune cells by flow cytometry in peripheral blood and pre/post treatment tumor biopsies as well as adenosine pathway modulation by immunohistochemistry and gene expression.
In step 1 of the trial, patients were dosed with either 100 mg BID for 14 days out of a 28 day cycle, 100 mg BID for 28 days, 200 mg QD for 14 days or 50 mg or 100 mg BID for 14 days in combination with […]® (840 mg Q2W). Pharmacodynamic analysis was conducted on peripheral blood cells to inform dose selection. Step 1 of Phase1/1b was fully enrolled (n=48) and dose was selected (100 mg BID) based on pharmacodynamic analysis of A2AR pathway.

[6] = non-oncology indications; 75 subjects; cited from earlier work
MC38 colon cancer cells = experiment: Syngeneic MC38 mouse colon carcinoma model, CPI-444 dose response and rechallenge; type: in vivo
From the text: 100% protected from rechallenge. […] These mice were challenged with the new engraftment of MC38 tumor cells.
MC38 colon cancer cells were subcutaneously injected onto the backs of syngeneic C57BL/6 mice.

A2AR [7] = target: T1, A2AR; experiment: cAMP production in primary human T cells stimulated with NECA (LANCE Ultra cAMP); type: cell-based; design: Blood samples were derived from patients and processed using the following protocol; endogenous in cells; host or cells: whole blood B cells and T cells of treated subjects
Protocol: Adenosine signaling through A2AR leads to increases in the levels of cAMP.
T cells were isolated from human PBMC by negative selection and activated via CD3/CD28 stimulation for 48 hours to induce A2AR expression. Stimulated T cells were then “rested” for 24 hours by removal of CD3/CD28 stimulation in order to minimize background levels of cAMP.

CT26 cells = experiment: XTT cell viability/proliferation, CT26; type: cell-based, mouse; details: 10 µM to 1 pM, 24 hours
Protocol: as §1

EL4 cells [8] = experiment: Syngeneic EL4 mouse lymphoma model; type: in vivo; details: 10, 30, 100 mg/kg daily oral gavage
Protocol: Syngeneic C57BL/6 female mice (8-10 weeks old) were injected (via subcutaneous route) with EL4 cells.

[9] = system: CT26 mouse colon cancer cells; details: CPI-444 100 mg/kg oral; anti-PD-1 100 ug/mouse i.p.
From the text: CT26 mouse colon cancer cells were engrafted onto the back of syngeneic male Balb/c mice. […] Treatment continued for 12 days.

[10] = system: MC38 mouse colon cancer cells; experiment: Syngeneic MC38 mouse colon cancer model, CPI-444 in combination with anti-PD-L1; type: in vivo
From the text: Combo eliminates tumors in 50% of mice. […] Treatment continued for 12 days.
FIGS. 16A and 16B: MC38 Model: Established tumors eliminated in 8/9 mice.
Treatment continued for more than 9 days (FIG. 23C). […] T cell depletion was verified by flow analysis. FIGS. 23A and 23B show the tumor volume at different time points since engraftment for the dosing cohorts.
Treatment continued for 12 days. […] T cell depletion was verified by flow analysis. FIGS. 23A and 23B show tumor volume at different time points since engraftment for the dosing cohorts.
Treatment continued for more than 9 days. […] T cell depletion was verified by flow analysis. FIGS. 23A and 23B show tumor volume at different time points since engraftment for the dosing cohorts.

MC38 cells = experiment: XTT cell viability/proliferation, MC38; type: cell-based, mouse; details: 10 µM to 1 pM, 24 hours
Protocol: as §1

A2AR [11] = target: T1, A2AR; experiment: pERK levels in human CD4+ T cells after TCR cross-linking; details: NECA 1 μM

T1 sequence (P29274 whole entry): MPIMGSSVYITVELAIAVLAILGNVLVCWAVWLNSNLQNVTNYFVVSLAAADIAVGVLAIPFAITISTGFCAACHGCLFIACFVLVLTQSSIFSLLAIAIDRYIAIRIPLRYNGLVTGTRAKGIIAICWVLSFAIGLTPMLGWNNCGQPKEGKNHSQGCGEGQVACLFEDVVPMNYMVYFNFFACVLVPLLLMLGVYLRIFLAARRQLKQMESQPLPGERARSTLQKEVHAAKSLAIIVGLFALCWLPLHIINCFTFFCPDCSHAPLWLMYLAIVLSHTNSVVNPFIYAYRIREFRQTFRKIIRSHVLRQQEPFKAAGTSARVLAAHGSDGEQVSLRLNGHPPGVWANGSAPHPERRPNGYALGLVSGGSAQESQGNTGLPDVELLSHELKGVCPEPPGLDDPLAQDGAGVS

Compound: Cc1ccc(-c2nc(N)nc3c2nnn3Cc2cccc(COC3CCOC3)n2)o1 (stereo not drawn) [CPI-444]
- Specific Absorbance (XTT cell viability/proliferation) (EL4 cells [1]): No significant decrease in the Specific Absorbance
- inhibition of NECA-induced CREB phosphorylation (A2AR [2]): completely inhibited; also recorded: Prevents pCREB Induction in B Cells
- IFNγ secretion in presence of A2AR agonist (A2AR [3]): restored IL-2 and IFNγ secretion back to levels observed in the absence of exogenous adenosine signaling
- IL-2 secretion in presence of A2AR agonist (A2AR [3]): restored IL-2 and IFNγ secretion back to levels observed in the absence of exogenous adenosine signaling
- inhibition of NECA-induced pCREB (A2AR [4]; 50 mg BID, Day 14): Variable inhibition; also recorded: not high enough for sustained inhibition
- change in pCREB percent inhibition between trough (0 hr) and peak (3 hr) (A2AR [4]; 100 mg BID): Little fluctuation from trough to peak
- patients with complete and sustained inhibition of NECA-induced pCREB (A2AR [4]; 100 mg BID single agent, Day 14): 7 of 7
- inhibition of pCREB / A2AR pathway (A2AR [4]; 100 mg BID, Day 14): high pCREB inhibition at trough and near complete inhibition after taking their morning dose; also recorded: highest pCREB inhibition at trough and near complete inhibition after taking their morning dose
- inhibition of NECA-induced pCREB (A2AR [4]; 200 mg QD, Day 14): Variable inhibition; also recorded: achieves high peak levels but is not maintained at trough; also recorded: partial inhibition; also recorded: attenuated
- CPI-444 plasma levels with near complete inhibition of pCREB in B cells (A2AR [4]; B cells): greater than 2,000 ng/mL
- CPI-444 plasma levels with near complete inhibition of pCREB in CD4+ T cells (A2AR [4]; T cells): greater than 2,000 ng/mL
- CPI-444 exposures at which the A2AR pathway is completely inhibited (A2AR [4]; plasma CPI-444): greater than 2000 ng/mL
- first efficacy assessment by CT ([5]; 2 pts (1 combination and 1 single agent), unconfirmed at 2 months): both demonstrated SD
- tolerability / treatment related adverse events ([5]; 7 pts treated to date): well tolerated with no Grade 3 or 4 treatment related adverse events; also recorded: well tolerated
- tumor response ([5]; Nivolumab-refractory lung cancer patient, 100 mg po BID×28 days/cycle): Tumor regression
- TCR repertoire changes in peripheral blood ([5]; TCRβ sequencing of PBMCs, Day 1 of Cycles 1 and 2): TCR repertoire changes were induced; also recorded: robust changes in TCR repertoire in some patients
- activated (PD-1+) CD8 cell frequencies in blood ([5]; flow analysis of whole blood): Increases in activated CD8 cell frequencies
- memory (CD45RA−) cell frequencies in blood ([5]; flow analysis of whole blood): increases
- T cell clone expansion / clonality ([5]; single agent CPI-444): Expansion of pre-existing and new T cell clones; also recorded: increased clonality
- increase in PD-1+CD8+ cells in peripheral blood compared to baseline ([5]; the two pts with SD): 1.7 fold and 2.4 fold
- tolerability [6]: well tolerated; also recorded: well tolerated with no significant adverse events noted
- tumor growth (MC38 colon cancer cells; 1 mg/kg daily oral gavage for 28 days): did not inhibit tumor growth
- tumor growth (MC38 colon cancer cells; 10 mg/kg daily oral gavage for 28 days): significantly inhibits the growth; also recorded: significant inhibition of tumor growth
- tumor growth (MC38 colon cancer cells; 100 mg/kg daily oral gavage for 28 days): significantly inhibits the growth; also recorded: significant inhibition of tumor growth
- mice with tumors eliminated (MC38 colon cancer cells; CPI-444 dose response study): 30%
- complete tumor regression (MC38 colon cancer cells; all cohorts (1, 10, 100 mg/kg)): complete tumor regression was observed in a subset of mice within all cohorts
- tumor growth after rechallenge with MC38 cells (MC38 colon cancer cells; cured mice, no additional CPI-444 treatment): fully inhibited; also recorded: fully rejected in all 9 mice
- inhibition of tumor growth (dose response) (MC38 colon cancer cells; daily CPI-444 1, 10, 100 mg/kg): dose-dependent inhibition of tumor growth; also recorded: Inhibits Growth of MC38 Tumors
- mice protected from rechallenge (MC38 colon cancer cells; new engraftment of MC38 cells, no additional CPI-444 treatment): 100%
- reoccurrence during additional 6 weeks monitoring (MC38 colon cancer cells; nine mice with complete tumor growth inhibition): No tumor growth was observed
- cAMP production upon NECA stimulation, CPI-444 dose dependence (A2AR [7]; FIG. 6): prevented cAMP production upon NECA stimulation in a dose-dependent manner; also recorded: Inhibits cAMP Production
- production of cAMP upon NECA treatment (A2AR [7]; all levels of NECA tested (10^-5 to 10^-9 M), 10 minutes): completely blocked the production of cAMP
- Specific Absorbance (XTT cell viability/proliferation) (CT26 cells): No significant decrease in the Specific Absorbance
- tumor growth in regional lymph nodes (number and size of enlarged nodes) (EL4 cells [8]): significant dose-dependent inhibition of tumor growth within regional lymph nodes; also recorded: significant, dose-dependent decrease in the number and size of enlarged regional lymph nodes; also recorded: Inhibits EL4 Tumor Growth In Regional Lymph Nodes
- tumor eradication / elimination [9]: not completely eradicated
- tumor eradication ([10]; CPI-444 100 mg/kg from Day 0, anti-PD-L1 200 ug/mouse): not completely eradicated
- tumor growth ([10]; CPI-444 100 mg/kg oral from Day 0 for 12 days, anti-PD-L1 mAb 10F.9G2 200 ug/mouse i.p. days 7, 10, 13, 16): inhibition of tumor growth
- dependence of efficacy on CD8+ T cells (T cell depletion with Anti-mCD4 / Anti-mCD8) ([10]; CPI-444 100 mg/kg, anti-PD-L1 200 ug/mouse): CD8+ T cells are required for the efficacy
- mice with tumors eliminated ([10]; FIGS. 14A and 14B title): 30%
- levels of immune checkpoints (GITR, OX40, LAG3) on tumor infiltrating lymphocytes and circulating T cells ([10]; mouse, in vivo): modulated
- Specific Absorbance (XTT cell viability/proliferation) (MC38 cells): No significant decrease in the Specific Absorbance
- pERK levels / ERK signaling in CD4+ T cells in the presence of NECA (A2AR [11]): restored pERK levels in a dose-dependent manner; also recorded: Restores pERK

Source: US10912776B2, “Methods of treating cancer” (Corvus Pharmaceuticals, Inc., priority 2015, dated 2021)
